SMILES strings stand for the structures. Structures can show the parent of a compound that is named as a salt. Where two headings read alike, the source gives them in different places.

Experiment [1] deals with T. brucei brucei Lister 427. The experiment is described as follows: Trypanosome replication assay. The experiment is classed as cell-based, Trypanosoma brucei brucei. The following applies: 48 h, 48 h, values ±7%.
For the next experiment, the system named is L. major amastigote. Put plainly: L. major amastigote assay. Type of experiment: cell-based. Particulars: Leishmania major.
In another experiment the test system is T. cruzi. Put plainly: T. cruzi growth inhibition. Type of experiment: cell-based, Trypanosoma cruzi. Particulars: Trypanosoma cruzi; for inhibition at 10 µM: read-out: T. cruzi % inh at 10 μM.
A further experiment relates to P. falciparum D6. Put plainly: P. falciparum D6 assay. Type of experiment: cell-based. The following applies: Plasmodium falciparum; strain D6.
Another experiment relates to HepG2 cells. Put plainly: HepG2 cell toxicity (MTT) assay. The experiment is classed as cell-based. The procedure:
Then 2 μL of DMSO (control) or different concentrations of drugs prepared from 200× DMSO stocks were added to the cultures. […] All experiments were repeated thrice in independent studies where each dose was administered in duplicate (total n=6). HepG2 Cell Toxicity Assay. The 384 well MTT cytotoxicity assay is a modification of the MTT method described by Ferrari et al. optimized for 384-well throughput, with modifications described below.
HepG2 Cell Toxicity assay. The 384 well MTT cytotoxicity assay is a modification of the MTT method described by Ferrari et al.^1 ENREF—26_ENREF—26_ENREF—26 optimized for 384 well throughput. […] 4.25 μL of diluted test compound was then added to the 38.3 μL of media in each well providing a 10 fold final dilution of compound. […] After a 48 hour incubation period, 8 μL of a 1.5 mg/ml solution of MTT diluted in complete MEM media was added to each well. All plates were subsequently incubated in the dark for 1 hour at room temperature. After incubation, the media and drugs in each well was removed by shaking plate over sink, the plates are then left to dry in hood for 15 minutes. […] Plates are put on a 3-D rotator for 15-30 minutes. Absorbance was determined in all wells using a Tecan iControl 1.6 Infinite plate reader.

The next experiment deals with P. falciparum W2. The experiment is described as follows: P. falciparum W2 assay. The experiment is classed as cell-based. Particulars: Plasmodium falciparum.
The next experiment relates to P. falciparum C235. The experiment is described as follows: P. falciparum C235 assay. The experiment is classed as cell-based. Particulars: Plasmodium falciparum, read-out: P. falciparum C235 (EC50).
The subject of a further experiment is L. major promastigote. Put plainly: L. major promastigote assay. The experiment is classed as cell-based. Particulars: Leishmania major.
[2] abbreviates: Trypanosoma brucei, read-out: Tbb EC50, concentration giving 50% inhibition of growth of T brucei brucei Lister 427 cells.
Where [3] appears, read: Homo sapiens, HepG2, 48 h, read-out: HepG2 IC50, MTT, 48 hour incubation.
Where [4] appears, read: read-out: HepG2 IC50, MTT, 48 hour incubation.
Where [5] appears, read: W2, read-out: P. falciparum W2 (EC50).
Where [6] appears, read: Trypanosoma brucei, concentration giving 50% inhibition of growth of T brucei brucei Lister 427 cells, read-out: Tbb EC50.
Where [7] appears, read: Homo sapiens, HepG2, 48 h, MTT, 48 hour incubation, read-out: HepG2 IC50.
[8] abbreviates: strain W2, read-out: P. falciparum W2 (EC50).

For `O=S(=O)(c1cccc(-c2ccc3ncnc(Nc4ccc(OCc5cccc(F)c5)c(Cl)c4)c3c2)c1)N1CCCCC1` [Compound 10m, N-(3-Chloro-4-((3-fluorobenzyl)oxy)phenyl)-6-(3-(piperidin-1-ylsulfonyl)phenyl)quinazolin-4-amine], the EC50 was 460 nM in experiment [1] (setting [2]); greater than 15000 nM in the experiment on L. major amastigote; greater than 50000 nM in the experiment on T. cruzi; 330 nM in the experiment on P. falciparum D6; 590 nM in the experiment on P. falciparum W2 (setting [5]); 350 nM in the experiment on P. falciparum C235. In the experiment on L. major promastigote, the EC50 was greater than 15000 nM. Also, the IC50 was greater than 15000 nM in the experiment with HepG2 cells (setting [3]) and greater than 20000 nM in the experiment with HepG2 cells (setting [4]).

Take `O=S(=O)(c1ccc(-c2ccc3ncnc(Nc4ccc(OCc5cccc(F)c5)c(Cl)c4)c3c2)cc1)N1CCSCC1` [Compound 10r, N-(3-Chloro-4-((3-fluorobenzyl)oxy)phenyl)-6-(4-(thiomorpholinosulfonyl)phenyl)quinazolin-4-amine]: the EC50 in experiment [1] (setting [6]) was 470 nM; in the experiment on L. major amastigote it was greater than 15000 nM; in the experiment on P. falciparum D6 it was 460 nM; in the experiment with P. falciparum W2 (setting [8]) it was 1600 nM; in the experiment on P. falciparum C235, 760 nM; in the experiment on L. major promastigote, greater than 15000 nM. The inhibition at 10 µM in the experiment on T. cruzi turned out to be 18%. In addition, the IC50 in the experiment on HepG2 cells (setting [7]) is greater than 15000 nM.

Take `COc1cc(Nc2ncnc3ccc(-c4ccc(S(=O)(=O)N5CCOCC5)cc4)cc23)ccc1OCc1cccc(F)c1` [Compound 20o, N-(4-((3-Fluorobenzyl)oxy)-3-methoxyphenyl)-6-(4-(morpholinosulfonyl)phenyl)quinazolin-4-amine]: the EC50 in experiment [1] (setting [6]) is 1880 nM; in experiment [1] (concentration giving 50% inhibition of growth of T brucei brucei Lister 427 cells, listed as NEU-570, read-out: Tbb EC50) it was 1900 nM; in the experiment on L. major amastigote, greater than 15000 nM; with P. falciparum D6, 440 nM; in the experiment on P. falciparum W2 (setting [8]) it was 650 nM; with P. falciparum C235 (strain C235) it was 600 nM. The compound also yielded an EC50 with L. major promastigote greater than 15000 nM. Moreover, the inhibition at 10 µM in the experiment with T. cruzi is 2%. Moreover, in the experiment on HepG2 cells (setting [7]), the IC50 is greater than 15000 nM.

Turning to `Clc1cc(Nc2ncnc3ccc(-c4cccc(N5CCOCC5)c4)cc23)ccc1OCc1ccccc1` [Compound 23m, N-(4-(Benzyloxy)-3-chlorophenyl)-6-(3-morpholinophenyl)-quinazolin-4-amine], the EC50 is 230 nM in experiment [1] (setting [6]); greater than 15000 nM in the experiment with L. major amastigote; 1300 nM in the experiment on T. cruzi; 790 nM in the experiment on P. falciparum D6; 1700 nM with P. falciparum W2 (setting [8]); 720 nM in the experiment on P. falciparum C235 (strain C235). The EC50 in the experiment with L. major promastigote stood at 6600 nM. The IC50 with HepG2 cells (setting [7]) is greater than 20000 nM.

With `O=S(=O)(c1ccc(-c2ccc3ncnc(Nc4ccc(OCc5ccccc5)c(Cl)c4)c3c2)cc1)N1CCOCC1` [Compound 20e, N-(4-(Benzyloxy)-3-chlorophenyl)-6-(4-(morpholinosulfonyl)phenyl)quinazolin-4-amine Hydrochloride], the EC50 was 1350 nM in experiment [1] (setting [6]); 1400 nM in experiment [1] (concentration giving 50% inhibition of growth of T brucei brucei Lister 427 cells, listed as NEU-551, Hydrochloride, read-out: Tbb EC50); greater than 15000 nM with L. major amastigote; 250 nM with P. falciparum D6; 720 nM in the experiment with P. falciparum W2 (setting [8]); 450 nM in the experiment with P. falciparum C235 (strain C235). In the experiment with L. major promastigote, the EC50 was found to be 470 nM. Moreover, the inhibition at 10 µM in the experiment with T. cruzi was found to be 9%. Besides, the 50% inhibitory concentration (IC50) in the experiment with HepG2 cells (setting [7]) was greater than 15000 nM.

Consider `O=S(=O)(c1cccc(-c2ccc3ncnc(Nc4ccc(OCc5cccc(F)c5)c(Cl)c4)c3c2)c1)N1CCOCC1` [Compound 10k, N-(3-Chloro-4-((3-fluorobenzyl)oxy)phenyl)-6-(3-(morpholinosulfonyl)phenyl)quinazolin-4-amine], for which the EC50 in experiment [1] (setting [2]) was 330 nM; in the experiment with L. major amastigote, greater than 15000 nM; in the experiment on T. cruzi it was 1700 nM; with P. falciparum D6 it was 280 nM; with P. falciparum W2 (setting [8]), 400 nM; in the experiment with P. falciparum C235 (strain C235) it was 290 nM. In addition, the EC50 with L. major promastigote was greater than 15000 nM. For the same compound, the IC50 with HepG2 cells (setting [3]) is greater than 15000 nM; with HepG2 cells (setting [4]), greater than 20000 nM.

As for `Fc1cccc(COc2ccc(Nc3ncnc4ccc(-c5ccc(N6CCOCC6)cc5)cc34)cc2Cl)c1` [Compound 23b, N-(3-Chloro-4-((3-fluorobenzyl)oxy)phenyl)-6-(4-morpholinophenyl)quinazolin-4-amine], the EC50 was 1910 nM in experiment [1] (setting [2]); 1900 nM in experiment [1] (read-out: Tbb EC50, concentration giving 50% inhibition of growth of T brucei brucei Lister 427 cells, listed as NEU-733); greater than 15000 nM in the experiment with L. major amastigote; 270 nM with P. falciparum D6; 1100 nM in the experiment on P. falciparum W2 (setting [8]); 290 nM with P. falciparum C235 (strain C235). In addition, the EC50 in the experiment with L. major promastigote amounted to 4400 nM. Further, in the experiment on T. cruzi, the inhibition at 10 µM turned out to be 10%. For the same compound, in the experiment with HepG2 cells (setting [7]), the IC50 was 9600 nM.

Take `O=S(=O)(c1ccc(-c2ccc3ncnc(Nc4ccc(OCc5cc(F)cc(F)c5F)c(Cl)c4)c3c2)cc1)N1CCOCC1` [Compound 20m, N-(3-Chloro-4-((2,3,5-trifluorobenzyl)oxy)phenyl)-6-(4-(morpholinosulfonyl)phenyl)quinazolin-4-amine Hydrochloride]: the EC50 in experiment [1] (setting [6]) was found to be 1120 nM; in experiment [1] (concentration giving 50% inhibition of growth of T brucei brucei Lister 427 cells, listed as NEU-569, Hydrochloride, read-out: Tbb EC50) it was 1100 nM; with L. major amastigote it was 3000 nM; in the experiment on P. falciparum D6 it was 140 nM; with P. falciparum W2 (setting [8]), 450 nM; with P. falciparum C235 (strain C235), 240 nM. In addition, the EC50 in the experiment on L. major promastigote came to 3000 nM. In addition, the inhibition at 10 µM in the experiment with T. cruzi amounted to 14%. The IC50 in the experiment on HepG2 cells (setting [7]) was greater than 3000 nM.

Take `O=S(=O)(c1ccc(-c2ccc3ncnc(Nc4ccc(OCc5cccc(F)c5)c(Cl)c4)c3c2)cc1)N1CCCCC1` [Compound 10l, N-(3-Chloro-4-((3-fluorobenzyl)oxy)phenyl)-6-(4-(piperidin-1-ylsulfonyl)phenyl)quinazolin-4-amine]: the EC50 is 320 nM in experiment [1] (setting [2]); greater than 15000 nM in the experiment with L. major amastigote; 180 nM in the experiment on P. falciparum D6; 330 nM with P. falciparum W2 (setting [5]); 240 nM with P. falciparum C235; greater than 15000 nM in the experiment on L. major promastigote. Further, the inhibition at 10 µM in the experiment on T. cruzi was 1%. The IC50 is greater than 15000 nM in the experiment on HepG2 cells (setting [3]) and greater than 20000 nM in the experiment with HepG2 cells (setting [4]).

Take `O=S(=O)(c1ccc(-c2ccc3ncnc(Nc4ccccc4)c3c2)cc1)N1CCOCC1` [Compound 20a, 6-(4-(Morpholinosulfonyl)phenyl)-N-phenylquinazolin-4-amine Hydrochloride]: the EC50 in experiment [1] (setting [6]) is 1440 nM; in experiment [1] (concentration giving 50% inhibition of growth of T brucei brucei Lister 427 cells, listed as NEU-548, Hydrochloride, read-out: Tbb EC50), 1400 nM; in the experiment with L. major amastigote, 4100 nM; with P. falciparum D6, 4100 nM; in the experiment on P. falciparum W2 (setting [8]), 4100 nM; in the experiment on P. falciparum C235 (strain C235), 4100 nM. The EC50 in the experiment with L. major promastigote turned out to be 4100 nM. In addition, in the experiment on T. cruzi, the inhibition at 10 µM stood at 13%. Further, the IC50 with HepG2 cells (setting [7]) was greater than 3000 nM.

Consider `c1ccc(Nc2ncnc3ccc(-c4cccc(N5CCOCC5)c4)cc23)cc1` [Compound 23o, 6-(3-Morpholinophenyl)-N-phenylquinazolin-4-amine], for which the EC50 was 11000 nM in experiment [1] (setting [6]); greater than 15000 nM with L. major amastigote; 6720 nM in the experiment with T. cruzi; 3100 nM in the experiment on P. falciparum D6; 3300 nM in the experiment with P. falciparum W2 (setting [8]); 4600 nM in the experiment with P. falciparum C235 (strain C235). The same compound returned an EC50 in the experiment on L. major promastigote of 9400 nM. Besides, in the experiment on HepG2 cells (setting [7]), the IC50 was 7020 nM.

Regarding `c1ccc(COc2ccc(Nc3ncnc4ccc(-c5cccc(N6CCOCC6)c5)cc34)cc2)cc1` [Compound 23n, N-(4-(Benzyloxy)phenyl)-6-(3-morpholinophenyl)-quinazolin-4-amine], the EC50 in experiment [1] (setting [6]) was 180 nM; in the experiment with L. major amastigote, greater than 15000 nM; with P. falciparum D6, 20000 nM; with P. falciparum W2 (setting [8]), 20000 nM; with P. falciparum C235 (strain C235), 20000 nM; in the experiment on L. major promastigote, 2700 nM. For the same compound, the inhibition at 10 µM in the experiment on T. cruzi amounted to 37%. The IC50 with HepG2 cells (setting [7]) is greater than 20000 nM.

The record behind these values is patent US20150259331A1, “PROTOZOAN PARASITE GROWTH INHIBITORS” (Northeastern University, priority 2014, published 2015).
